Experimental data from US10106519B2, “3-phenyl-7-hydroxy-isocoumarins as macrophage migration inhibitory factor (MIF) inhibitors” (The Provost, Fellows, Foundation Scholars, & the Other …, priority 2014, dated 2018).
“Also recorded” adds a separate entry of the source.

Columns and labels:
MIF tautomerase = molecular target: T1, MIF tautomerase (Homo sapiens, UniProt P14174); assay: MIF tautomerase inhibition assay; assay type: biochemical; details: panel of 25 potential inhibitors, 100 μM (FIG. 1, FIG. 3)
T1 construct: host or cells: E. coli BL21
T1 sequence (P14174 2-115 limits assumed): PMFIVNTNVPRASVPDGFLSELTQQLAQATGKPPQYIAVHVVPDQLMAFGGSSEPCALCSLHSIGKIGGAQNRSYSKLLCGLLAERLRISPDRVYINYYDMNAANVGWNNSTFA
Experimental: Human recombinant MIF was purified as per Bernhagen et al. (Biochemistry, 1994. 33(47): p. 14144-55). Briefly, BL21 E. coli cells expressing the pET11b-MIF construct were grown to an absorbance at 600 nm (OD) of […]. Isopropyl 1-thio-P-D-galactopyranoside (IPTG) (Sigma—cat no. 16758) was added to a final concentration of 1 mM to induce expression of the MIF gene and incubated for another 3 hours. Bacteria were then harvested by centrifugation and the cell pellets were then frozen. Protein purification was then out sourced to Scottish Biomedical, where the bacterial pellets were thawed and resuspended in 3 ml of Tris-buffered saline. The bacteria were then lysed by adding an equivalent number of glass beads and vortexing strongly for 10 minutes. Glass beads were removed by centrifugation at 1000 g for 10 minutes and the bacterial extract was centrifuged at 1000 g for a further 30 minutes. The supernatant was then sterile-filtered through a […] membrane filter and put through a MONO Q anion exchange chromatography column. MIF was eluted using Tris-buffered saline in the first flow-through fractions and pooled and placed on ice. These pooled fractions were then applied to a C8-SepPak reverse phase column. Unbound material was eluted by washing with water and 20% acetonitrile/water. MIF was then eluted using 6 column volumes of 60% acetonitrile/water. This sample was then renatured by dissolving MIF at a concentration of […] in 20 mM sodium phosphate buffer containing 8M urea and 5 mM DTT and dialysed against 20 mM sodium phosphate buffer. […]
L-dopachrome methyl ester was prepared at 2.4 mM through oxidation of L-3,4-dihydroxyphenylalanine methyl ester with sodium periodate. The solution was mixed well and placed at room temperature for 5 minutes before being placed on ice in the dark. 100 ng of rMIF was added to each of the Tautomerase Inhibitors or ISO-1 at a number of concentrations (1, 50 and 100 μM) with substrate. The decrease in absorbance was measured with a spectrophotometer at 475 nm every 10 seconds for 10 minutes.
The rate of the reaction of rMIF and substrate alone was measured over time at 475 nm. This was compared to the rate of this reaction with the addition of 100 μM of each of the inhibitors. Inhibition was calculated as the percentage in the reduction of the rate of change with the addition of the inhibitor averaged over five minutes.

[1] = system: LPS mediated PGE-2 production; assay: PGE-2 production in LPS treated RAW macrophage cells (ELISA); assay type: cell-based, murine; details: 100 μM inhibitor, 100 ng/ml LPS (FIG. 4)
Experimental: Raw macrophage murine cells were plated at a cell density of 1×10^5 and pre-treated with 100 μM of each of the inhibitors […] for 30 minutes at 37° C. in a humidified 5% CO2 incubator. Raw macrophage cells were then treated with 100 ng/ml of LPS and supernatants were collected after 16 hours at 37° C. in a humidified 5% CO2 incubator and analysed for PGE-2 production. Levels of PGE-2 were measured by ELISA. (CAT # KGE004 R&D Syst).

[2] = system: Lewis Lung carcinoma cells (LLC); assay: LLC-GLuc proliferation assay with rMIF; assay type: cell-based, mouse; details: 100 μM inhibitor, 100 ng/ml rMIF, 48 hours (FIG. 5)
Experimental: LLC-GLuc cells were plated in a 6 well plate at a density of 5×10^4 cells/ml in DMEM supplemented with P/S, 10% FCS and L-Glu. After overnight adherence, 100 ng/ml MIF was added along with the inhibitors or DMSO to a total of 1 ml serum free medium. Cells were harvested after 48 hours by trypsinisation and counted in a haemocytometer.
The ability of candidate compounds to reduce cellular proliferation was also examined. For this assay, LLC cells were plated at a cell density of 5×10^4 cells/ml. The cells were then pre-treated with TI 19 or ISO-1 at a concentration of 100 μM. The cells were then treated with 100 ng/ml of recombinant MIF. The cells were incubated at 37° C. in a humidified 5% CO2 incubator and after 48 hours the cells were harvested and counted.

[3] = system: Lewis Lung carcinoma cells; assay: Subcutaneous LLC1 tumour model with in vivo tautomerase inhibitor treatment; set-up: species or system C57BL/6 mice
Experimental: Log phase cultures of LLC-1 cells were harvested by trypsinisation and washed three times with sterile phosphate buffered saline (PBS) and resuspended at a cell density of 5×10^5/ml in PBS. Animals were shaved with an electric shaver 24 hours before subcutaneous injection. 5×10^5 Lewis Lung cells were injected subcutaneously into the left flank of C57BL/6 mice of 6-8 weeks. Animals were monitored for the duration of the experiment and tumour measurements were recorded twice weekly with a digital callipers. Tumour volume (mm^3) was calculated as 0.5×L×W^2, where length is representative of the larger tumour diameter and the width represents the smaller tumour diameter. Animals are sacrificed when tumours reach a diameter of 15 mm or if tumours become ulcerated. Tumours are then removed along with the lungs, spleen and liver.
30 minutes prior to LLC-1 inoculation, inhibitors (TI 19/ISO-1) were administered at a concentration of 35 mg/kg in a volume of 100 μl 5% DMSO in sterile PBS. Control groups were given injections of vehicle 5% DMSO in sterile PBS or sterile PBS alone. Animals were treated twice weekly for four weeks.
In order to assess the antitumour activity of the novel tautomerase inhibitors in vivo, a subcutaneous LLC-1 cell model was set up. The subcutaneous model was chosen so that tumours could be easily visualised and measured during the course of the experiment and to allow assessment of the growth of the tumour in real time. Lewis Lung carcinoma cells (5×10^5) were injected sub-cutaneously into the left flank of C57BL/6 mice. Caliper measurements were taken twice weekly and tumour volume (mm^3) was calculated as 0.5×L×W^2. […] The cut off point for this model was when the tumour measured 15 mm in diameter. This model gave us an indication of normal tumour growth in this subcutaneous model. It can be seen from this model that from day 22 to day 28 the size of the tumour grows considerably.
Once it was determined that the enzymatic activity played a role in the growth of tumours, the subcutaneous LLC model was then used to assess the efficiency of the small weight molecular inhibitors. C57/B16 mice were injected intraperitoneally with 35 mg/kg of each of the inhibitors 30 minutes prior to subcutaneous tumour inoculation and again twice weekly for 4 weeks. Animals were monitored daily and tumour measurements taken until the tumour measured 15 mm in diameter.

## Cc1ccccc1-c1cc2ccccc2c(=O)o1 [TI 19]
MIF tautomerase
  inhibition of MIF tautomerase enzymatic activity, in words: highest percentage inhibition of MIF enzymatic activity; also recorded: significantly more potent than the commercially available small molecule MIF inhibitor ISO-1
[1]
  reduction of LPS mediated PGE-2 production, in words: significantly reduces; also recorded: greater reduction in PGE-2 than ISO-1; also recorded: reduced PGE-2 levels to comparable levels in untreated cells
[2]
  reduction of MIF induced proliferation, in words: inhibited significantly; also recorded: reduced proliferation to levels comparable with untreated cells; also recorded: reduced cell proliferation
[3]; 35 mg/kg intraperitoneally 30 min prior to inoculation and twice weekly (FIG. 8)
  tumour volume: 116.1±30.41 mm^3
[3]; 35 mg/kg intraperitoneally, versus untreated or vehicle (DMSO) group (FIG. 8)
  reduction in tumour size, in words: significant reduction in tumour size; also recorded: significant reduction in tumour volume
[3]; at 28 days
  effectiveness in reducing tumour size relative to ISO-1: approximately twice as effective
